Data taken from US12036246B2, “Compositions and methods for enhancing cancer chemotherapy” (priority 2017, dated 2024).

Experiments:
[1] = test system: triple-negative breast cancer cell line (MDA-MB-231); assay: Proliferation of MDA-MB-231 breast cancer cells; format: cell-based; conditions: 72 hours, FIG. 8-9
[2] = test system: MDA-MB-231 breast cancer sphere cells; assay: Proliferation of MDA-MB-231 sphere cells; format: cell-based; conditions: FIG. 45-46
HSP90 = assay: Western blot of HSP90 in tumors, animal models of triple negative human breast cancer; format: in vivo; conditions: FIG. 111
Protocol: Studies of the effect of a nutritional supplement containing fish oil and selenium, both alone and in combination with chemotherapeutic agents, were also studied using in vivo animal models of triple negative human breast cancer. Animals were treated with a nutritional supplement containing fish oil and selenium (for example, a formulation as described in Table 1), Taxol (“tax”), Adriamycin (“adyri”), Avastin, or a combination of the nutritional supplement and individual chemotherapeutic agents.

p-AXL = assay: Western blot of p-AXL in tumors, animal models of triple negative human breast cancer; format: in vivo; conditions: FIG. 112
[3] = test system: MDA-MB-231 breast cancer sphere cells; assay: Cell cycle phase distribution, Cisplatin / selenium / fish oil (Table 4); format: cell-based; conditions: selenium 500 ng/mL, fish oil 75 μM (DHA content), Cisplatin 5 μg/mL
[4] = test system: Iressa-resistant HCC827GR cells; assay: Cell cycle phase distribution of Iressa-resistant cells, co-treatment; format: cell-based, human; conditions: Iressa 1 μM
lung cancer cells [5] = assay: Tumor weight in mice implanted with lung cancer cells, Iressa; format: in vivo
A549 sphere cells = assay: Proliferation of A549 sphere cells; format: cell-based; conditions: FIG. 43-44
HCC827Gr cells [6] = assay: Viable resistant HCC827Gr cells in culture; format: cell-based, human; conditions: FIG. 54
[7] = test system: drug resistant HCC827Gr lung cancer cells; assay: Proliferation of drug resistant HCC827Gr cells; format: cell-based, human
HCC827Gr cells [8] = assay: Colony formation by resistant HCC827Gr cells; format: cell-based, human; conditions: 0.5 μM Iressa, FIG. 59-60
PD-1 = PD-1 in T cells of animal models; format: in vivo; conditions: FIG. 70-72
AXL = assay: Western blot of AXL in drug resistant HCC827GR cells; format: cell-based, human; conditions: Iressa 1 μM, FIG. 105, 108
A549 lung cancer cells = assay: Cell cycle phase distribution of A549 tumor cells; format: cell-based; conditions: selenium 300 ng/mL, fish oil 75 μM (DHA content), Alimta 1 μM, Tarceva 5 μM
[9] = test system: A549 lung cancer sphere cells; assay: Cell cycle phase distribution of A549 sphere cells; format: cell-based; conditions: Alimta 1 μM, Tarceva 5 μM, fish oil 75 μM, selenium 300 ng/mL
lung cancer cells [10] = assay: Metastasis from implantation site of lung cancer cells; format: in vivo, mice; conditions: FIG. 63
[11] = Loss of adipose tissue and muscle mass in tumor bearing mice; format: in vivo; conditions: FIG. 75
Source text: Individuals with cancer frequently present with weight loss, due to loss of fatty tissue and muscle wasting (cachexis). This weight loss can result in serious health issues in addition to those resulting directly from tumor growth and progression. […] Mice having tumors, with or without treatment with chemotherapeutic agents also experience cachexis.

PTHrP = PTHrP expression in tumors; format: in vivo; conditions: FIG. 77, FIG. 89
implanted tumor = conditions: 28 days after tumor implantation, FIG. 13
Source text: 8A provides an example of a typical testing protocol for such a nutritional supplement (“Nutrawell”) and the chemotherapeutic drug Tarceva. As shown, 28 days after tumor implantation mice were sacrificed and the tumor characterized.

IL-6 = IL-6 expression in tumors; conditions: FIG. 77
[12] = test system: proliferative index marker; assay: Proliferative index marker in mammary gland tumors by immunocytochemistry; format: in vivo, murine; conditions: FIG. 11
Source text: The effects of a nutritional supplement that includes fish oil and selenium in combination with chemotherapeutic drugs were also identified in in vivo studies, where the Ki-61 proliferative index marker was identified in mammary gland tumors of murine models by immunocytochemistry.

[13] = test system: vascularization of tumors; assay: Tumor-associated blood vessels in murine models of breast cancer; format: in vivo, mice; conditions: FIG. 24-31
Protocol: In an exemplary study mice were treated as shown in the scheme depicted in FIG. 23.

Cytochrome C = assay: Western blot of Cytochrome C in tumors; format: in vivo; conditions: FIG. 38
Source text: Results of similar studies directed to Bc1-2, p-Bc1-2, and Caspase 3 are shown in FIG. 36; results for similar studies directed to Caspase 8 are shown in FIG. 37. […] These effects are enhanced, in several instances synergistically, when a nutritional supplement containing fish oil and selenium is used in combination with a chemotherapeutic drug.

breast cancer cells = assay: Metastatic tumor load in mammary glands, animals implanted with breast cancer cells; format: in vivo; conditions: FIG. 65
UCP-1 = UCP-1 expression in animal models of human cancer; format: in vivo; conditions: FIG. 89
Source text: (§1) As shown in FIG. 89 (lower left panel), expression of UCP-1 and ATGL is increases in tumor tissue (T) relative to non-tumor tissue (NT).

ATGL = ATGL expression in animal models of human cancer; format: in vivo; conditions: FIG. 89
Source text: as §1

For `CC(=O)O[C@@]12CO[C@@H]1C[C@H](O)[C@@]1(C)C(=O)[C@H](O)C3=C(C)[C@@H](OC(=O)[C@H](O)[C@@H](NC(=O)OC(C)(C)C)c4ccccc4)C[C@@](O)([C@@H](OC(=O)c4ccccc4)[C@H]21)C3(C)C` [Docetaxel], the MDA-MB-231 cell proliferation [1] was “provided a reduction in proliferation” and the “proliferation of MDA-MB-231 breast cancer sphere cells” value [2] was “moderate sensitivity to Docetaxel”.
For “Avastin: chemotherapeutic drug commonly used to treat breast cancer”, the “HSP90 expression in tumor samples” value (HSP90) was “reduced to some extent” and the “p-AXL content of the tumor” value (p-AXL) was “little to no apparent reduction in p-AXL expression”.
In the case of `N.N.[Cl][Pt][Cl]` [Cisplatin], the “G0/G1 (cell cycle phase distribution)” value [3] was 48.5%, the “G2/M (cell cycle phase distribution)” value [3] was 6.1% and the “S (cell cycle phase distribution)” value [3] was 45.4%. For the same compound, the “SubG1 (cell cycle phase distribution)” value [3] was 11.7% and the “proliferation of MDA-MB-231 breast cancer sphere cells” value [2] was “relatively resistant”.
For `COc1cc2ncnc(Nc3ccc(F)c(Cl)c3)c2cc1OCCCN1CCOCC1` [Iressa], the “G0/G1 (cell cycle phase distribution)” value [4] was 76.1%, the “G2/M (cell cycle phase distribution)” value [4] was 18.9% and the “S (cell cycle phase distribution)” value [4] was 4.9%. For the same compound, the “SubG1 (cell cycle phase distribution)” value [4] was 1.51%, the tumor weight (lung cancer cells [5]; FIG. 16) was “only a marginal reduction in tumor weight” and the tumor weight distribution (lung cancer cells [5]; FIG. 16 top right panel) was “most of the mice having >6 gram tumors”. For the same compound, the “proliferation of A549 sphere cells” value (A549 sphere cells) was “relatively resistant to treatment with Iressa”, the “number of viable resistant HCC827Gr cells” value (HCC827Gr cells [6]) was “does not significantly decrease the number of viable resistant HCC827Gr cells” and the “reduction in cell proliferation” value ([7]; HCC827Gr cells, FIG. 57-58) was ≤ 20%. The activity at 1 µM ([7]; Homo sapiens, read-out: proliferation, % of control values) was ~80%, the “colony formation by HCC827Gr cells” value (HCC827Gr cells [8]) was “Significant colony formation” and the “PD-1 expression in T cells” value (PD-1) was “marginally reduced”. For the same compound, the AXL expression (AXL) was “had no effect”.
With `C#Cc1cccc(Nc2ncnc3cc(OCCOC)c(OCCOC)cc23)c1` [Tarceva] the “G0/G1 (cell cycle phase distribution)” value (A549 lung cancer cells) was 70.9%, the “G2/M (cell cycle phase distribution)” value (A549 lung cancer cells) was 14.8% and the “S (cell cycle phase distribution)” value (A549 lung cancer cells) was 14.2%. The “SubG1 (cell cycle phase distribution)” value (A549 lung cancer cells) was 5.9%, the “G0/G1 (cell cycle phase distribution)” value [9] was 58.3% and the “G2/M (cell cycle phase distribution)” value [9] was 8.9%. The “S (cell cycle phase distribution)” value [9] was 32.7%, the “SubG1 (cell cycle phase distribution)” value [9] was 42.8% and the “proliferation of A549 sphere cells” value (A549 sphere cells) was “similarly resistant to Tarceva”. The “metastasis of tumor cells from the implantation site” value (lung cancer cells [10]) was “reduced to some extent”, the “PD-1 expression in T cells” value (PD-1) was “marginally reduced” and the “loss of white adipose tissue (WAT), brown adipose tissue (BAT), and muscle mass (gastroc)” value [11] was “only slightly relieved”. For the same compound, the PTHrP expression (PTHrP) was “can actually increase expression of such gene products”, the “tumor weight distribution, large (>5 g) tumors” value (implanted tumor) was “still showed a significant number of such large tumors” and the “IL-6 expression in tumors” value (IL-6) was “can actually increase expression of such gene products”.
For `CC(=O)O[C@H]1C(=O)[C@@]2(C)[C@H]([C@H](OC(=O)c3ccccc3)[C@]3(O)C[C@H](OC(=O)[C@H](O)[C@@H](NC(=O)c4ccccc4)c4ccccc4)C(C)=C1C3(C)C)[C@]1(OC(C)=O)CO[C@@H]1C[C@@H]2O` [Taxol, paclitaxel], the “number of Ki-61 positive cells (proliferative index)” value [12] was “reduces the number of positive cells”, the “blood vessels associated with the tumors” value [13] was “reduce the number of blood vessels associated with the tumor and also reduce their diameter” and the “Cytochrome C” value (Cytochrome C) was “little to no increase”. For the same compound, the “metastatic tumor load in the mammary glands” value (breast cancer cells) was “modest reduction in tumor loading of mammary glands”, the PTHrP expression (PTHrP) was “actually increased expression when used alone” and the “expression of UCP-1” value (UCP-1) was “decreased somewhat”. The “expression of ATGL” value (ATGL) was “decreased somewhat”, the “HSP90 expression in tumor samples” value (HSP90) was “minimal impact on HSP90 expression” and the “p-AXL content of the tumor” value (p-AXL) was “reduces p-AXL expression”.
With `Nc1nc2[nH]cc(CCc3ccc(C(=O)N[C@@H](CCC(=O)O)C(=O)O)cc3)c2c(=O)[nH]1` [Alimta] the “G0/G1 (cell cycle phase distribution)” value (A549 lung cancer cells) was 58.4%, the “G2/M (cell cycle phase distribution)” value (A549 lung cancer cells) was 5.3% and the “S (cell cycle phase distribution)” value (A549 lung cancer cells) was 36.3%. The “SubG1 (cell cycle phase distribution)” value (A549 lung cancer cells) was 45%, the “G0/G1 (cell cycle phase distribution)” value [9] was 62.4% and the “G2/M (cell cycle phase distribution)” value [9] was 7.2%. For the same compound, the “S (cell cycle phase distribution)” value [9] was 30.4% and the “SubG1 (cell cycle phase distribution)” value [9] was 20.9%.
For `COc1cccc2c1C(=O)c1c(O)c3c(c(O)c1C2=O)C[C@@](O)(C(=O)CO)C[C@@H]3O[C@H]1C[C@H](N)[C@H](O)[C@H](C)O1` [Adriamycin, doxorubicin], the “number of Ki-61 positive cells (proliferative index)” value [12] was “reduces the number of positive cells”, the “Cytochrome C” value (Cytochrome C) was “little to no increase” and the “metastatic tumor load in the mammary glands” value (breast cancer cells) was “more effective than Taxol in reducing metastatic tumor load”. For the same compound, the “p-AXL content of the tumor” value (p-AXL) was “little to no apparent reduction in p-AXL expression”.
